According to patent US7053175B1, “Synthetic peptides useful in biological assays for detecting infections caused by group O HIV-1 viruses” (Bio-Rad Pasteur, priority 1997, dated 2006):

Test system: sera from patients infected with group O HIV-1 retroviruses
Assay: Immunoenzymatic test: Test No. 1 (immunoreactivity of peptides coated on microplates)
Assay type: binding, human
Design: key to ABSORBANCE: >: signal greater than the reading capacity of the spectrophotometer
Conditions: for ABSORBANCE: cyclized peptide 2 μg/ml
Description: The sera used ESS, DUR, VAU and HAD are sera from French patients infected with group O HIV-1 retroviruses. The other serum samples from patients infected with group O HIV-1 retroviruses were obtained by the Yaoundé Pasteur Centre in Cameroon and were serotyped group O according to the serological algorithm described in AIDS (1977), 11, pp 445-453.
The HIV-negative sera (n=48) were obtained from healthy volunteers.
The synthetic peptides used were dissolved in water at a concentration of 1 mg/ml (stock solution). For the solid phase sensitization step (coating), 110 μl of a solution at 2 μg/ml of each peptide (obtained by diluting the stock solution with 0.1 M carbonate buffer solution) were added to each well of the microtitre plates Microtiter™ (NUNC). After incubating overnight at room temperature, the microplates were first washed with a Tris-NaCl buffer solution pH 7.4 containing 0.1% of Tween® 20 and 0.001% sodium merthiolate, and then saturated with a PBS solution containing 0.5% of Régilait™ (dried skimmed milk). After aspirating the saturating solution, the plates were heated for 10 min at 50° C.
The serum samples were diluted 1/5 with a skimmed milk solution (citrate buffer supplemented with 0.01% of phenol red, 0.25% of chloroform and 0.25% of Kathon®), deposited in the wells of the plates and incubated for 30 min at 40° C.
After washing with a Tris-NaCl buffer solution pH 7.4 containing 0.1% of Tween® 20 and 0.001% of sodium merthiolate, 100 μl of a solution of conjugate consisting of horseradish peroxidase-labelled anti-human IgG and IgM goat antibodies, containing as preservative 0.01% of sodium merthiolate, in solution in a citrate buffer solution supplemented with 30% glycerol and 25% normal foetal calf serum, were added to each plate well and then the plates were incubated for 30 min at 40° C.
After washing with a Tris-NaCl buffer solution pH 7.4 containing 0.1% of Tween® 20 and 0.001% of sodium merthiolate, the colour was developed by adding, to each well, 100 μl of O-phenylenediamine in solution in hydrogen peroxide. The microplates were then incubated for 30 min at room temperature and in the dark. The coloured reaction was then stopped by addition of 100 μl of 4N sulphuric acid. The absorbance (A) was determined at 490 and 620 nm.
The relative absorbance (A490-A620) read in each well is proportional to the immunoreactivity of each peptide. It indicates the ability of each peptide to react with the biological sample with which the test is carried out. The cut-off value was determined as being an absorbance equal to 0.15. It corresponds to the mean of the negative values (n=48) plus 12 standard deviations.
The reactivity of the peptides of the invention (peptide No. 3 (4B), peptide No. 2 (3B) and peptide No. 1 (2B), all in cyclized form), was compared with that of two synthetic peptides having, as sequence, a portion of the natural sequence of the envelope (env) of the VAU isolate (group O HIV-1 retrovirus) and comprising an immunodominant epitope of gp41.
For the study, these peptides were used in cyclized form.

Sequence: LLSLWGCRGRLVCYTSVQWNET [PEPTIDE No. 2 (3B)]
- ABSORBANCE (serum 134): >
- ABSORBANCE (serum 402): >
- ABSORBANCE (serum 625): >
- ABSORBANCE (serum 1062): >
- ABSORBANCE (serum 1105*): 1.031
- ABSORBANCE (serum 1581): >
- ABSORBANCE (serum 1702): >
- ABSORBANCE (serum 1754): >
- ABSORBANCE (serum 2294): >
- ABSORBANCE (serum 2312): >
- ABSORBANCE (serum 2313): >
- ABSORBANCE (serum 2352): >
- ABSORBANCE (serum 2551): >
- ABSORBANCE (serum 2700): 0.274
- ABSORBANCE (serum 3016): >
- ABSORBANCE (serum 3136): 0.992
- ABSORBANCE (serum 3235): >
- ABSORBANCE (serum 3236): >
- ABSORBANCE (serum 3302): >
- ABSORBANCE (serum 3482): >
- ABSORBANCE (serum 3529): >
- ABSORBANCE (serum 3600*): >
- ABSORBANCE (serum 3627*): >
- ABSORBANCE (serum 3637): >
- ABSORBANCE (serum 3653): >
- ABSORBANCE (serum 3771): >
- ABSORBANCE (serum 3884*): >
- ABSORBANCE (serum 3891): >
- ABSORBANCE (serum 3935): 0.893
- ABSORBANCE (serum 3945): >
- ABSORBANCE (serum 4021*): 0.119
- ABSORBANCE (serum 4288*): >
- ABSORBANCE (serum 4364): >
- ABSORBANCE (serum 4434): >
- ABSORBANCE (serum 4477): >
- ABSORBANCE (serum 4489*): >
- ABSORBANCE (serum 5149*): >
- ABSORBANCE (serum 5164): >
- ABSORBANCE (serum 5210): >
- ABSORBANCE (serum 5270*): >
- ABSORBANCE (serum 5373): >
- ABSORBANCE (serum 5453): 0.081
- ABSORBANCE (serum 5766*): >
- ABSORBANCE (serum 5931): >
- ABSORBANCE (serum 5969*): 0.282
- ABSORBANCE (serum 6111): >
- ABSORBANCE (serum 6165): >
- ABSORBANCE (serum 6198*): >
- ABSORBANCE (serum 6295*): 1.063
- ABSORBANCE (serum 6487): 1.017
- ABSORBANCE (serum 6512*): 0.785
- ABSORBANCE (serum 6627): >
- ABSORBANCE (serum 6689*): >
- ABSORBANCE (serum 6697): >
- ABSORBANCE (serum 6782): 2.091
- ABSORBANCE (serum 6891): 0.614
- ABSORBANCE (serum 6976*): >
- ABSORBANCE (serum 6998): >
- ABSORBANCE (serum 7007): 2.334
- ABSORBANCE (serum 7120): >
- ABSORBANCE (serum 7212): >
- ABSORBANCE (serum 7258*): >
- ABSORBANCE (serum 7297*): >
- ABSORBANCE (serum 7439): >
- ABSORBANCE (serum 7443): >
- ABSORBANCE (serum DUR*): >
- ABSORBANCE (serum ESS*): >
- ABSORBANCE (serum HAD): 0.518
- ABSORBANCE (serum VAU*): >
- immunoreactivity compared with the other peptides (in words) (summary of Table IV): more immunoreactive than the VAU 22 AA peptide
